Reference: patent US20220281848A1, “PYRAZOLE-SUBSTITUTED PYRROLIDINONES AS HERBICIDES” (FMC Corporation, priority 2019, published 2022)

Test system: plants
Test: Test D pre-emergence, other plants of Tables D1 and D3
Type: in vivo
Settings: preemergent, 20 DAA
Summary of the method: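 Damage was rated visually from 0 (none) to 100 (total), at 20 DAA for pre-emergence and 15 d for post-emergence. Plants grew from safener-treated seed in a glasshouse at 24/18° C. or 20/16° C. day/night, 65% humidity, watered twice daily.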

SMILES: CN1C[C@H](c2nn(C)c3c(F)cccc23)[C@@H](C(=O)Nc2cccc(F)c2F)C1=O [Compound 2]
- damage to plant (100=total damage to plant; 0=no damage to plant), ABUTH (rate 15): 0
- damage to plant (100=total damage to plant; 0=no damage to plant), ABUTH (rate 30): 0
- damage to plant (100=total damage to plant; 0=no damage to plant), ABUTH (rate 60): 0
- damage to plant (100=total damage to plant; 0=no damage to plant), ABUTH (rate 130): 0
- damage to plant (100=total damage to plant; 0=no damage to plant), ABUTH (rate 250): 0
- damage to plant (100=total damage to plant; 0=no damage to plant), ABUTH (rate 500): 20
- damage to plant (100=total damage to plant; 0=no damage to plant), AMARE (rate 15): 0
- damage to plant (100=total damage to plant; 0=no damage to plant), AMARE (rate 30): 0
- damage to plant (100=total damage to plant; 0=no damage to plant), AMARE (rate 60): 0
- damage to plant (100=total damage to plant; 0=no damage to plant), AMARE (rate 130): 0
- damage to plant (100=total damage to plant; 0=no damage to plant), AMARE (rate 250): 0
- damage to plant (100=total damage to plant; 0=no damage to plant), AMARE (rate 500): 0
- damage to plant (100=total damage to plant; 0=no damage to plant), BIDPI (rate 15): 0
- damage to plant (100=total damage to plant; 0=no damage to plant), BIDPI (rate 30): 0
- damage to plant (100=total damage to plant; 0=no damage to plant), BIDPI (rate 60): 0
- damage to plant (100=total damage to plant; 0=no damage to plant), BIDPI (rate 130): 0
- damage to plant (100=total damage to plant; 0=no damage to plant), BIDPI (rate 250): 0
- damage to plant (100=total damage to plant; 0=no damage to plant), BIDPI (rate 500): 0
- damage to plant (100=total damage to plant; 0=no damage to plant), BRAPL (rate 15): 0
- damage to plant (100=total damage to plant; 0=no damage to plant), BRAPL (rate 30): 70
- damage to plant (100=total damage to plant; 0=no damage to plant), BRAPL (rate 60): 80
- damage to plant (100=total damage to plant; 0=no damage to plant), BRAPL (rate 130): 80
- damage to plant (100=total damage to plant; 0=no damage to plant), BRAPL (rate 250): 90
- damage to plant (100=total damage to plant; 0=no damage to plant), BRAPL (rate 500): 90
- damage to plant (100=total damage to plant; 0=no damage to plant), CYPES (rate 15): 0
- damage to plant (100=total damage to plant; 0=no damage to plant), CYPES (rate 30): 0
- damage to plant (100=total damage to plant; 0=no damage to plant), CYPES (rate 60): 0
- damage to plant (100=total damage to plant; 0=no damage to plant), CYPES (rate 130): 0
- damage to plant (100=total damage to plant; 0=no damage to plant), CYPES (rate 250): 0
- damage to plant (100=total damage to plant; 0=no damage to plant), CYPES (rate 500): 0
- damage to plant (100=total damage to plant; 0=no damage to plant), DIGSA (rate 15): 0
- damage to plant (100=total damage to plant; 0=no damage to plant), DIGSA (rate 30): 90
- damage to plant (100=total damage to plant; 0=no damage to plant), DIGSA (rate 60): 90
- damage to plant (100=total damage to plant; 0=no damage to plant), DIGSA (rate 130): 90
- damage to plant (100=total damage to plant; 0=no damage to plant), DIGSA (rate 250): 90
- damage to plant (100=total damage to plant; 0=no damage to plant), DIGSA (rate 500): 90
- damage to plant (100=total damage to plant; 0=no damage to plant), ECHCG (rate 15): 50
- damage to plant (100=total damage to plant; 0=no damage to plant), ECHCG (rate 30): 50
- damage to plant (100=total damage to plant; 0=no damage to plant), ECHCG (rate 60): 80
- damage to plant (100=total damage to plant; 0=no damage to plant), ECHCG (rate 130): 90
- damage to plant (100=total damage to plant; 0=no damage to plant), ECHCG (rate 250): 90
- damage to plant (100=total damage to plant; 0=no damage to plant), ECHCG (rate 500): 90
- damage to plant (100=total damage to plant; 0=no damage to plant), ELEIN (rate 15): 0
- damage to plant (100=total damage to plant; 0=no damage to plant), ELEIN (rate 30): 0
- damage to plant (100=total damage to plant; 0=no damage to plant), ELEIN (rate 60): 0
- damage to plant (100=total damage to plant; 0=no damage to plant), ELEIN (rate 130): 0
- damage to plant (100=total damage to plant; 0=no damage to plant), ELEIN (rate 250): 0
- damage to plant (100=total damage to plant; 0=no damage to plant), ELEIN (rate 500): 0
- damage to plant (100=total damage to plant; 0=no damage to plant), EPHHL (rate 15): 0
- damage to plant (100=total damage to plant; 0=no damage to plant), EPHHL (rate 30): 0
- damage to plant (100=total damage to plant; 0=no damage to plant), EPHHL (rate 60): 0
- damage to plant (100=total damage to plant; 0=no damage to plant), EPHHL (rate 130): 0
- damage to plant (100=total damage to plant; 0=no damage to plant), EPHHL (rate 250): 0
- damage to plant (100=total damage to plant; 0=no damage to plant), EPHHL (rate 500): 10
- damage to plant (100=total damage to plant; 0=no damage to plant), GLXMA (rate 15): 0
- damage to plant (100=total damage to plant; 0=no damage to plant), GLXMA (rate 30): 0
- damage to plant (100=total damage to plant; 0=no damage to plant), GLXMA (rate 60): 0
- damage to plant (100=total damage to plant; 0=no damage to plant), GLXMA (rate 130): 0
- damage to plant (100=total damage to plant; 0=no damage to plant), GLXMA (rate 250): 0
- damage to plant (100=total damage to plant; 0=no damage to plant), GLXMA (rate 500): 0
- damage to plant (100=total damage to plant; 0=no damage to plant), IPOHE (rate 15): 0
- damage to plant (100=total damage to plant; 0=no damage to plant), IPOHE (rate 30): 0
- damage to plant (100=total damage to plant; 0=no damage to plant), IPOHE (rate 60): 0
- damage to plant (100=total damage to plant; 0=no damage to plant), IPOHE (rate 130): 0
- damage to plant (100=total damage to plant; 0=no damage to plant), IPOHE (rate 250): 0
- damage to plant (100=total damage to plant; 0=no damage to plant), IPOHE (rate 500): 0
- damage to plant (100=total damage to plant; 0=no damage to plant), ORYSA (rate 15): 0
- damage to plant (100=total damage to plant; 0=no damage to plant), ORYSA (rate 30): 0
- damage to plant (100=total damage to plant; 0=no damage to plant), ORYSA (rate 60): 0
- damage to plant (100=total damage to plant; 0=no damage to plant), ORYSA (rate 130): 0
- damage to plant (100=total damage to plant; 0=no damage to plant), ORYSA (rate 250): 0
- damage to plant (100=total damage to plant; 0=no damage to plant), ORYSA (rate 500): 0
- damage to plant (100=total damage to plant; 0=no damage to plant), PANMI (rate 15): 0
- damage to plant (100=total damage to plant; 0=no damage to plant), PANMI (rate 30): 0
- damage to plant (100=total damage to plant; 0=no damage to plant), PANMI (rate 60): 0
- damage to plant (100=total damage to plant; 0=no damage to plant), PANMI (rate 130): 0
- damage to plant (100=total damage to plant; 0=no damage to plant), PANMI (rate 250): 0
- damage to plant (100=total damage to plant; 0=no damage to plant), PANMI (rate 500): 0
- damage to plant (100=total damage to plant; 0=no damage to plant), SETFA (rate 15): 0
- damage to plant (100=total damage to plant; 0=no damage to plant), SETFA (rate 30): 80
- damage to plant (100=total damage to plant; 0=no damage to plant), SETFA (rate 60): 80
- damage to plant (100=total damage to plant; 0=no damage to plant), SETFA (rate 130): 80
- damage to plant (100=total damage to plant; 0=no damage to plant), SETFA (rate 250): 80
- damage to plant (100=total damage to plant; 0=no damage to plant), SETFA (rate 500): 90
- damage to plant (100=total damage to plant; 0=no damage to plant), SIDSP (rate 15): 0
- damage to plant (100=total damage to plant; 0=no damage to plant), SIDSP (rate 30): 0
- damage to plant (100=total damage to plant; 0=no damage to plant), SIDSP (rate 60): 0
- damage to plant (100=total damage to plant; 0=no damage to plant), SIDSP (rate 130): 0
- damage to plant (100=total damage to plant; 0=no damage to plant), SIDSP (rate 250): 0
- damage to plant (100=total damage to plant; 0=no damage to plant), SIDSP (rate 500): 0
- damage to plant (100=total damage to plant; 0=no damage to plant), SORVU (rate 15): 0
- damage to plant (100=total damage to plant; 0=no damage to plant), SORVU (rate 30): 0
- damage to plant (100=total damage to plant; 0=no damage to plant), SORVU (rate 60): 0
